IC50 and EC50 data for 26 molecules are collected here from US20260226073A1 (AURIGENE ONCOLOGY LIMITED, priority 2023, published 2026).

Test [1] addresses T1, human recombinant CBL-b (human Biotin CBL-b recombinant protein a.a. 39-426) (Homo sapiens, UniProt Q13191).
T1 construct: human Biotin CBL-b recombinant protein a.a; 39-426; Biotin (biotinylated); made in house
In words: Biochemical assay for CBL-b inhibition (ligand displacement TR-FRET). The conditions noted are these: 50 nM CBL-b, 0.3 μM Bodipy FL-Probe, read-out: IC50 (CBL-b inhibition, group). It is filed as binding. A digest of the protocol: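 Ligand-displacement TR-FRET: 0.3 μM Bodipy FL probe competes with compound for 50 nM biotin-CBL-b (aa 39-426) after a 60 min RT compound pre-incubation; terbium-streptavidin detection, 60 min each step. Dose-response sigmoidal fitting gave IC50 and % maximum inhibition.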

Test [2] has as its system NFAT signaling pathway in Jurkat NFAT reporter cells. Briefly: Jurkat NFAT reporter assay. The conditions noted are these: Homo sapiens, 30 min with compound, then soluble anti-human CD3/CD28 antibody for 6 hours, luciferase readout, read-out: EC50 (Group). It is filed as cell-based. A digest of the protocol:
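Results are expressed as fold change relative to stimulated, inhibitor-free cells. Stimulation was 6 h with soluble anti-human CD3/CD28 antibody after a 30-min exposure of 1×10^5 NFAT-RE luciferase Jurkat reporter cells per well to the Cbl-b inhibitor; signal read by Bio-Glo bioluminescence.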
Background: In a reporter assay the amount or activity of a reporter protein is the signal.

A word on the IC50: it is the midpoint of a concentration-inhibition curve. In general, EC50 refers to the concentration that produces a half-maximal response.

T1 sequence (Q13191 39-426): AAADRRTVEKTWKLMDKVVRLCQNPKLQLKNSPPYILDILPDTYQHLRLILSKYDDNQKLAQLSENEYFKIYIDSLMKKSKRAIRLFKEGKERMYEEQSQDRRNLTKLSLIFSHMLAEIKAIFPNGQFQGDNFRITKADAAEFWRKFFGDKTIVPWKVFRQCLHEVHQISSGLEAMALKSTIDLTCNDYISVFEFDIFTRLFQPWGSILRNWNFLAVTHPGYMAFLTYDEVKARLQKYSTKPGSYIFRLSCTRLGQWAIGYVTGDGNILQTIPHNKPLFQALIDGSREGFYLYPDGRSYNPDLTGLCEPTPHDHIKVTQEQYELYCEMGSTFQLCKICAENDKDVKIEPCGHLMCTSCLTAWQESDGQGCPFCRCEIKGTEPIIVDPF

`COc1ccc(-c2ccc3c(c2)C(=O)N(c2cc(CNCC4CC4)cc(C)n2)C3)c(-c2nncn2C)c1` [Compound 273, 2-(4-(((Cyclopropylmethyl)amino)methyl)-6-methylpyridin-2-yl)-6-(4-methoxy-2-(4-methyl-4H-1,2,4-triazol-3-yl)phenyl)isoindolin-1-one]: the IC50 in test [1] was less than 0.08 µM. In test [2], the EC50 was 1 to 10 µM.

In the case of `Cc1cc(CNCC2CCC2)cc(N2Cc3ccc(-c4ccc(Cl)cc4-c4nncn4C)cc3C2=O)n1` [Compound 274, 6-(4-Chloro-2-(4-methyl-4H-1,2,4-triazol-3-yl)phenyl)-2-(4-(((cyclobutyl-methyl)amino)methyl)-6-methylpyridin-2-yl)isoindolin-1-one], in test [1], the concentration for half-maximal inhibition (IC50) is less than 0.08 µM. The EC50 in test [2] was less than 0.3 µM.

Regarding `Cn1cnnc1-c1cc(Cl)ccc1-c1ccc2c(c1)C(=O)N(c1cc(C(C)(C)NCC3CC3)cc(Cl)n1)C2` [Compound 275, 6-(4-Chloro-2-(4-methyl-4H-1,2,4-triazol-3-yl)phenyl)-2-(6-chloro-4-(2-((cyclopropylmethyl)amino)propan-2-yl)pyridin-2-yl)isoindolin-1-one], the 50% inhibitory concentration (IC50) in test [1] is less than 0.08 µM. In addition, the EC50 in test [2] is less than 0.3 µM.

For the molecule `Cc1ccc(-c2ccc3c(c2)C(=O)N(c2cc(CNCC4CC4)cc(C)n2)C3)c(-c2nncn2C)c1` [Compound 277, 2-(4-(((Cyclopropylmethyl)amino)methyl)-6-methylpyridin-2-yl)-6-(4-methyl-2-(4-methyl-4H-1,2,4-triazol-3-yl)phenyl)isoindolin-1-one], the half-maximal inhibitory concentration (IC50) in test [1] was less than 0.08 µM. Moreover, in test [2], the half-maximal effective concentration (EC50) lay in the range of 1 to 10 µM.

For `Cc1cc(C(C)NCC2CCC2)cc(N2Cc3ccc(-c4ccc(Cl)cc4-c4nncn4C)cc3C2=O)n1` (stereo not shown) [Compound 278, 6-(4-Chloro-2-(4-methyl-4H-1,2,4-triazol-3-yl)phenyl)-2-(4-(1-((cyclobutyl-methyl)amino)ethyl)-6-methylpyridin-2-yl)isoindolin-1-one], in test [1], the IC50 is less than 0.08 µM. In test [2], the EC50 was less than 0.3 µM.

Consider `Cc1cc(CNCC2CC(F)(F)C2)cc(N2Cc3ccc(-c4ccc(Cl)cc4-c4nncn4C)cc3C2=O)n1` [Compound 279, 6-(4-Chloro-2-(4-methyl-4H-1,2,4-triazol-3-yl)phenyl)-2-(4-((((3,3-difluoro-cyclobutyl)methyl)amino)methyl)-6-methylpyridin-2-yl)isoindolin-1-one], for which, in test [1], the IC50 was less than 0.08 µM. Besides, the EC50 in test [2] is less than 0.3 µM.

Regarding `Cc1cc(CNCC2CC2)cc(N2Cc3ccc(-c4ccc(Cl)cc4-c4nncn4C)cc3C2=O)c1` [Compound 280, 6-(4-Chloro-2-(4-methyl-4H-1,2,4-triazol-3-yl)phenyl)-2-(3-(((cyclopropyl-methyl)amino)methyl)-5-methylphenyl)isoindolin-1-one], in test [1], the IC50 was less than 0.08 µM. In addition, in test [2], the EC50 was 0.3 to 1 µM.

Turning to `Cc1cc(C(C)NCC2CC(F)(F)C2)cc(N2Cc3ccc(-c4ccc(Cl)cc4-c4nncn4C)cc3C2=O)n1` (stereo not shown) [Compound 281, 6-(4-Chloro-2-(4-methyl-4H-1,2,4-triazol-3-yl)phenyl)-2-(4-(1-(((3,3-difluoro-cyclobutyl)methyl)amino)ethyl)-6-methylpyridin-2-yl)isoindolin-1-one], the IC50 in test [1] is less than 0.08 µM. In addition, the EC50 in test [2] was less than 0.3 µM.

Regarding `Cc1cc(C(C)NCC2CC2)cc(N2Cc3ccc(-c4ccc(F)cc4-c4nncn4C)cc3C2=O)n1` (stereo not shown) [Compound 282, 2-(4-(1-((Cyclopropylmethyl)amino)ethyl)-6-methylpyridin-2-yl)-6-(4-fluoro-2-(4-methyl-4H-1,2,4-triazol-3-yl)phenyl)isoindolin-1-one], in test [1], the IC50 is less than 0.08 µM. Besides, in test [2], the EC50 was less than 0.3 µM.

Take `Cc1cc(C(C)(C)NCC2CC2)cc(N2Cc3ccc(-c4ccc(F)cc4-c4nncn4C)cc3C2=O)n1` [Compound 293, 2-(4-(2-((Cyclopropylmethyl)amino)propan-2-yl)-6-methylpyridin-2-yl)-6-(4-fluoro-2-(4-methyl-4H-1,2,4-triazol-3-yl)phenyl)isoindolin-1-one]: in test [1], the IC50 was less than 0.08 µM. Also, in test [2], the EC50 lay within 0.3 to 1 µM.

Regarding `CCn1cnnc1-c1cc(F)ccc1-c1ccc2c(c1)C(=O)N(c1cc(CNCC3CC3)cc(C)n1)C2` [Compound 294, 2-(4-(((Cyclopropylmethyl)amino)methyl)-6-methylpyridin-2-yl)-6-(2-(4-ethyl-4H-1,2,4-triazol-3-yl)-4-fluorophenyl)isoindolin-1-one], the IC50 in test [1] is less than 0.08 µM. In test [2], the EC50 was in the range of 1 to 10 µM.

On to `CCC(C)NCc1cc(C)nc(N2Cc3ccc(-c4ccc(F)cc4-c4nncn4C)cc3C2=O)c1` (stereo not shown) [Compound 295, 2-(4-((sec-Butylamino)methyl)-6-methylpyridin-2-yl)-6-(4-fluoro-2-(4-methyl-4H-1,2,4-triazol-3-yl)phenyl)isoindolin-1-one], for which, in test [1], the half-inhibitory concentration (IC50) was less than 0.08 µM. Further, in test [2], the EC50 is less than 0.3 µM.

For `Cc1cc(CNCC2CC2)cc(N2Cc3c(F)cc(-c4ccc(F)cc4-c4nncn4C)cc3C2=O)n1` [Compound 296], in test [1], the concentration for half-maximal inhibition (IC50) is less than 0.08 µM. The concentration giving a half-maximal response (EC50) in test [2] was 1 to 10 µM.

Turning to `Cc1cc(CNC(C2CC2)C2CC2)cc(N2Cc3ccc(-c4ccc(F)cc4-c4nncn4C)cc3C2=O)n1` [Compound 298, 2-(4-(((Dicyclopropylmethyl)amino)methyl)-6-methylpyridin-2-yl)-6-(4-fluoro-2-(4-methyl-4H-1,2,4-triazol-3-yl)phenyl)isoindolin-1-one], in test [1], the IC50 is less than 0.08 µM. In test [2], the concentration giving a half-maximal response (EC50) was less than 0.3 µM.

`Cc1cc(CNCCC(C)C)cc(N2Cc3ccc(-c4ccc(F)cc4-c4nncn4C)cc3C2=O)n1` [Compound 300, 6-(4-Fluoro-2-(4-methyl-4H-1,2,4-triazol-3-yl)phenyl)-2-(4-((isopentylamino)-methyl)-6-methylpyridin-2-yl)isoindolin-1-one]: the IC50 in test [1] is less than 0.08 µM. For the same molecule, in test [2], the 50% effective concentration (EC50) is 0.3 to 1 µM.

As to `COCCNCc1cc(C)nc(N2Cc3ccc(-c4ccc(F)cc4-c4nncn4C)cc3C2=O)c1` [Compound 302, 6-(4-Fluoro-2-(4-methyl-4H-1,2,4-triazol-3-yl)phenyl)-2-(4-(((2-methoxyethyl)-amino)methyl)-6-methylpyridin-2-yl)isoindolin-1-one], the concentration for half-maximal inhibition (IC50) in test [1] was less than 0.08 µM. In test [2], the EC50 lay in the range of 0.3 to 1 µM.

`Cc1cc(CNCC(C)(C)C)cc(N2Cc3ccc(-c4ccc(F)cc4-c4nncn4C)cc3C2=O)n1` [Compound 303]: the IC50 in test [1] was less than 0.08 µM. Also, the EC50 in test [2] is 0.3 to 1 µM.

For `Cc1cc(CNCC2CC2)cc(N2Cc3ccc(-c4ccc(F)cc4-c4nccn4C)cc3C2=O)n1` [Compound 304], the IC50 in test [1] was less than 0.08 µM. In test [2], the 50% effective concentration (EC50) lay in the range of 1 to 10 µM.

For the molecule `Cc1cc(CNCC(C)C)cc(N2Cc3ccc(-c4ccc(F)cc4-c4nncn4C)cc3C2=O)n1` [Compound 305], in test [1], the IC50 was less than 0.08 µM. Also, the EC50 in test [2] is less than 0.3 µM.

Regarding `Cc1cc(CNCCC2CC2)cc(N2Cc3ccc(-c4ccc(F)cc4-c4nncn4C)cc3C2=O)n1` [Compound 307, 2-(4-(((2-Cyclopropylethyl)amino)methyl)-6-methylpyridin-2-yl)-6-(4-fluoro-2-(4-methyl-4H-1,2,4-triazol-3-yl)phenyl)isoindolin-1-one], in test [1], the IC50 is less than 0.08 µM. The 50% effective concentration (EC50) in test [2] is less than 0.3 µM.

Turning to `Cc1cc(CNCC2(CO)CCC2)cc(N2Cc3ccc(-c4ccc(F)cc4-c4nncn4C)cc3C2=O)n1` [Compound 308], in test [1], the IC50 was less than 0.08 µM. In test [2], the concentration giving a half-maximal response (EC50) was in the range of 1 to 10 µM.

With `Cc1cc(CNCC(C)(C)O)cc(N2Cc3ccc(-c4ccc(F)cc4-c4nncn4C)cc3C2=O)n1` [Compound 309, 6-(4-Fluoro-2-(4-methyl-4H-1,2,4-triazol-3-yl)phenyl)-2-(4-(((2-hydroxy-2-methylpropyl)amino)methyl)-6-methylpyridin-2-yl)isoindolin-1-one], the IC50 in test [1] is less than 0.08 µM. In addition, in test [2], the EC50 was less than 0.3 µM.

Take `[2H]C([2H])([2H])n1cnnc1-c1cc(F)ccc1-c1ccc2c(c1)C(=O)N(c1cc(CNCC3CC3)cc(C)n1)C2` [Compound 310, 2-(4-(((Cyclopropylmethyl)amino)methyl)-6-methylpyridin-2-yl)-6-(4-fluoro-2-(4-(methyl-d3)-4H-1,2,4-triazol-3-yl)phenyl)isoindolin-1-one]: the 50% inhibitory concentration (IC50) in test [1] is less than 0.08 µM. The EC50 in test [2] is less than 0.3 µM.

For the molecule `Cc1cc(CNCC2(O)CC2)cc(N2Cc3ccc(-c4ccc(F)cc4-c4nncn4C)cc3C2=O)n1` [Compound 311], the IC50 in test [1] was less than 0.08 µM. The concentration giving a half-maximal response (EC50) in test [2] is 1 to 10 µM.

`Cc1cc(CN[C@@H]2CCC[C@H]2O)cc(N2Cc3ccc(-c4ccc(F)cc4-c4nncn4C)cc3C2=O)n1` [Compound 314, 6-(4-Fluoro-2-(4-methyl-4H-1,2,4-triazol-3-yl)phenyl)-2-(4-((((1R,2R)-2-hydroxycyclopentyl)amino)methyl)-6-methylpyridin-2-yl)isoindolin-1-one]: the IC50 in test [1] was less than 0.08 µM. Besides, in test [2], the concentration giving a half-maximal response (EC50) fell in the range of 0.3 to 1 µM.

As for `Cc1cc(CN[C@@H](CO)C(C)C)cc(N2Cc3ccc(-c4ccc(F)cc4-c4nncn4C)cc3C2=O)n1` [Compound 315, (R)-6-(4-Fluoro-2-(4-methyl-4H-1,2,4-triazol-3-yl)phenyl)-2-(4-(((1-hydroxy-3-methylbutan-2-yl)amino)methyl)-6-methylpyridin-2-yl)isoindolin-1-one], the half-inhibitory concentration (IC50) in test [1] was less than 0.08 µM. Besides, the EC50 in test [2] was less than 0.3 µM.
